According to patent publication US20260216057A1, “PHARMACEUTICAL COMPOSITIONS FOR HERPES VIRUS” (priority 2022, published 2026):

Tests used:
[1] = Example 13A: Compound 1 IV PK study in monkey; type: in vivo, male non-naïve cynomolgus monkeys; conditions: 0.2 mg/kg
Experimental: A 0.2 mg/mL solution of Compound 1 in 10% DMSO, 10% Solutol HS15 and 80% Saline was prepared as follows: • 1) A stock solution of Compound 1 in DMSO was prepared. • 2) An equal volume of the Compound 1 stock solution and Solutol HS15 were combined and mixed. • 3) The above solution was diluted with normal saline to reach the target concentration. The final formulation was a clear solution. Male non-naïve Cyno Monkeys with were used for the monkey PK study. The animals had free access to food and water. The Compound 1 solution described above was administered via intravenous injection (1 mL/kg) to each animal (n=3) to achieve a 0.2 mg/kg dose. At each time point, approximately 0.5 mL whole blood was collected into K2EDTA tubes. Blood samples were put on to ice and centrifuged at 2000 g for 5 min to obtain plasma sample within 15 minutes. Plasma samples were stored at approximately −70° C. until analyzed by LC-MS.

[2] = Allometric scaling of multi-species PK data to human
[3] = Example 15: Compound 1 solution SC PK study in rat; type: in vivo, male Sprague Dawley rats
Experimental: The LC-MS methodology and conditions used to analyse the helicase-primase inhibitor Compound 1 in rat plasma samples from the sub-cutaneous injection PK study described in Example 15 are provided in Table 8.
(§1) A solution of Compound 1 in 90% NMP and 10% Solutol HS15 at a concentration of 50 mg/mL was prepared as follows: • 1) An appropriate amount of crystalline Compound 1 (Form C) was weighed and added to NMP. • 2) After Compound 1 had dissolved, Solutol HS15 was added to the solution and mixed [state mixing conditions and time]. • 3) The final dosing formulation was a clear solution.
Male Sprague Dawley (SD) rats with ~230-250 g body weight (aged 6-8 weeks) were used for the pharmacokinetic study. The animals had free access to food and water. […]
(§2) At each time point, approximately 150 μL whole blood was collected in a K2EDTA tube via the jugular vein. Blood samples were put on ice and centrifuged at 2000 g for 5 min to obtain a plasma sample within 15 minutes. Plasma samples were stored at approximately −70° C. until analyzed by LC-MS.

[4] = Example 16: Compound 1 solution SC PK study in dog; type: in vivo, male non-naïve Beagle dogs; conditions: 10 mg/kg
Experimental: The LC-MS methodology and conditions used to analyse the helicase-primase inhibitor Compound 1 in dog plasma samples from the dog PK study described in Example 16 are given in Table 9.
as §1, with “mixed.” for “mixed [state mixing conditions and time].”
as §1, with “100” for “50”, “mixed.” for “mixed [state mixing conditions and time].”
Male non-naïve beagles were used for the dog PK study. The animals had free access to food and water. The prepared 50 mg/mL solution was administered via subcutaneous injection to each animal group (n=3) with a dosing volume of 0.2 mL/kg to achieve a 10 mg/kg dose. […]
At each time point, approximately 0.5 mL of whole blood was collected into K2EDTA tubes. […] Plasma samples were stored at approximately −70° C. until analyzed by LC-MS.

[5] = Example 5: comparative pritelivir solution PK study in rat following IV/SC administration; type: in vivo, male Sprague Dawley rats; conditions: for AUC(0-t): male, Sprague Dawley, plasma, solution, n = 3
Experimental: A solution of crystalline pritelivir free base (dihydrate) in 5% NMP, 5% Solutol HS15 & 90% saline at a concentration of 0.5 mg/mL was prepared as follows: • 1) A stock solution of 10 mg/mL of pritelivir (dihydrate) in NMP was prepared. • 2) Equal volumes of the pritelivir stock solution and Solutol HS15 were combined and mixed. • 3) The above solution was diluted with normal saline to reach target 0.5 mg/mL pritelivir concentration. The formulation was a clear solution.
Male Sprague Dawley (SD) rats with ~300 g body weight (ages 6-8 weeks) were used for the pharmacokinetic study. The animals had free access to food and water. The pritelivir solution described above was administered via intravenous injection to animals (n=3) with a dosing volume of 2 mL/kg to achieve a 1 mg/kg dose. For subcutaneous injection, the dosing volume of 10 mL/kg was utilized to achieve a 5 mg/kg dose.
as §2, with “200” for “150”, “LC-MS according to the method described above.” for “LC-MS.”

[6] = solution in 90% NMP/10% Solutol HS15

Clearance [1] [mL/h/kg] | half-life [1] [h] | predicted human clearance [2] [L/h] | variability in plasma concentrations [3, 6] | prolonged exposure for (length of the study) ([3]; solution in 90% NMP/10% Solutol HS15 (50 mg/mL), dose of 50 mg/kg as printed, following an initial drug burst) [h] | prolonged exposure for (length of the study) ([4]; solutions 50 mg/mL (0.2 mL/kg) and 100 mg/mL (0.1 mL/kg), both formulations) | F ([5]; intravenous (IV), 1 mg/kg) [%] | AUC(0-t) ([5]; intravenous (IV), 1 mg/kg) [µg·h/mL] | AUC(0-t) ([5]; subcutaneous (SC), 5 mg/kg) [µg·h/mL] | Structure (SMILES) | adverse reactions at the injection sites [3, 6] | adverse reactions at the injection sites ([4]; both solution formulations)
4 | 72 | 0.06 | low | 960 | at least 60 days |  |  |  | Cc1nc(N2CCCN(c3ccc(-c4cc(F)ccc4F)cc3)C2=O)sc1S(N)(=O)=O [Compound 1, 2-(3-(2′,5′-difluoro-[1,1′-biphenyl]-4-yl)-2-oxotetrahydropyrimidin-1(2H)-yl)-4-methylthiazole-5-sulfonamide] | no adverse reactions were observed | no adverse reactions were observed
 |  |  |  |  |  | 100 | 31.8 | 185 | Cc1nc(N(C)C(=O)Cc2ccc(-c3ccccn3)cc2)sc1S(N)(=O)=O [pritelivir, N-methyl-N-(4-methyl-5-sulfamoyl-1,3-thiazol-2-yl)-2-[4-(pyridin-2-yl)phenyl]acetamide] |  | 
